Each structure is given as a SMILES string.

A short description of data set [1]: Compound levels in neck/back skin (LCMS), in vivo mouse model. Also on record: species or system mice. The following applies: for concentration at 1 h / concentration at 2 h: male, C57BL/6J, mouse, neck/back skin; for concentration at 1 h: 1 h after final application; for concentration at 2 h: 2 h after final application; for Compound Levels in Neck/Back Skin: pre-dose (16 h). The protocol:
Week 4 (Experiment end): Skin and blood were collected right before the last morning dose (N=3), 1 hour (N=3 mice), and 2 hours (N=3 mice) after final application; Blood draw: Plasma compound levels (LCMS); Skin biopsy: formalin fixed for histology and p-ERK staining, flash frozen for Western analysis and skin compound levels (LCMS)
Skin biopsy and GI tract sampling: Skin was wiped down with 100% ethanol and a 1 cm^2 biopsy was obtained from compound application site each mouse at the 25 day end of experiment (except as noted below). The skin was biopsied prior to final dose from 3 mice, 1 hour after last compound application from 3 mice, 2 hours after last compound application from 3 mice. Half of the specimen were immediately flash frozen for LCMS analysis and Western Blot Analysis. Half of the specimen was fixed for 24 hours in 10% formalin and then transferred to ethanol for immunohistochemistry. Gastrointestinal tract was also formalin fixed overnight then transferred to 70% ETOH for storage.
Compound level analysis: Liquid chromatography with mass spectrometry method (LCMS) was used to detect compound levels in the skin and plasma. Tissues were preprocessed prior to LCMS as follows. Tissues were minced and incubated with collagenase and then finally homogenized using the stainless steel beads prior to LCMS analysis. Calibration curves and a QC test were run with each assay.

The target in the next data set is T1, hERG channel protein (Homo sapiens, UniProt Q12809).
T1 construct: purchased ThermoFisher PV5365
Put plainly: hERG screening assay (Predictor hERG FP). It counts as binding. The following applies: fluorescence polarization tracer displacement. Here is the method:
hERG screening was conducted using a procedure similar to the procedure described by Piper et al. (Piper, D. R. et al., Assay Drug Dev. Technol. 2008, 6(2):213-223). The Predictor hERG FP assay (available from ThermoFisher, cat. no. PV5365) is a homogenous, fluorescence polarization biochemical-based format utilizing a membrane fraction containing hERG channel protein (Predictor hERG Membrane) and a high affinity, red-fluorescent hERG channel ligand (Predictor hERG Tracer Red). When the Predictor hERG Tracer ligand is bound to the hERG channel it produces high fluorescence polarization values. Compounds that bind to the hERG channel protein (competitors) displace the Predictor hERG Tracer Red resulting in decreased fluorescence polarization values.
Test compounds were solubilized in DMSO at 100× (or greater) of the desired starting concentration. Screening was conducted with a final concentration of 1% DMSO. For 10-point titrations, 3-fold serial dilutions were performed from the starting concentrations. The assay buffer used was 25 mM HEPES (pH 7.5), 15 mM KCl, 1 mM MgCl2, and 0.05% Pluronic F-127 (available from Sigma-Aldrich).
Predictor hERG membranes were stored as a 2× stock at −80° C. Each membrane lot was titrated to identify the concentration of membranes required to obtain ˜70% bound tracer. Before setting up the assay the membranes were thawed in a 37° C. water bath and stored at room temperature. To avoid light scatter caused by large membrane particulates the membranes were sonicated until a homogeneous solution free of particulates is obtained. […]
384 well untreated low-volume polystyrene microplates (Corning Cat. #4511) were used for the assay. […] The assay plate was read on a fluorescence plate reader (Tecan Safire^2) and the data was analyzed. […]
Assay blank control wells consisted of Predictor hERG Membranes and Assay Buffer. The blank wells were used for background subtraction of raw parallel and perpendicular fluorescence values prior to the calculation of polarization values. […]

T1 sequence (Q12809 whole entry): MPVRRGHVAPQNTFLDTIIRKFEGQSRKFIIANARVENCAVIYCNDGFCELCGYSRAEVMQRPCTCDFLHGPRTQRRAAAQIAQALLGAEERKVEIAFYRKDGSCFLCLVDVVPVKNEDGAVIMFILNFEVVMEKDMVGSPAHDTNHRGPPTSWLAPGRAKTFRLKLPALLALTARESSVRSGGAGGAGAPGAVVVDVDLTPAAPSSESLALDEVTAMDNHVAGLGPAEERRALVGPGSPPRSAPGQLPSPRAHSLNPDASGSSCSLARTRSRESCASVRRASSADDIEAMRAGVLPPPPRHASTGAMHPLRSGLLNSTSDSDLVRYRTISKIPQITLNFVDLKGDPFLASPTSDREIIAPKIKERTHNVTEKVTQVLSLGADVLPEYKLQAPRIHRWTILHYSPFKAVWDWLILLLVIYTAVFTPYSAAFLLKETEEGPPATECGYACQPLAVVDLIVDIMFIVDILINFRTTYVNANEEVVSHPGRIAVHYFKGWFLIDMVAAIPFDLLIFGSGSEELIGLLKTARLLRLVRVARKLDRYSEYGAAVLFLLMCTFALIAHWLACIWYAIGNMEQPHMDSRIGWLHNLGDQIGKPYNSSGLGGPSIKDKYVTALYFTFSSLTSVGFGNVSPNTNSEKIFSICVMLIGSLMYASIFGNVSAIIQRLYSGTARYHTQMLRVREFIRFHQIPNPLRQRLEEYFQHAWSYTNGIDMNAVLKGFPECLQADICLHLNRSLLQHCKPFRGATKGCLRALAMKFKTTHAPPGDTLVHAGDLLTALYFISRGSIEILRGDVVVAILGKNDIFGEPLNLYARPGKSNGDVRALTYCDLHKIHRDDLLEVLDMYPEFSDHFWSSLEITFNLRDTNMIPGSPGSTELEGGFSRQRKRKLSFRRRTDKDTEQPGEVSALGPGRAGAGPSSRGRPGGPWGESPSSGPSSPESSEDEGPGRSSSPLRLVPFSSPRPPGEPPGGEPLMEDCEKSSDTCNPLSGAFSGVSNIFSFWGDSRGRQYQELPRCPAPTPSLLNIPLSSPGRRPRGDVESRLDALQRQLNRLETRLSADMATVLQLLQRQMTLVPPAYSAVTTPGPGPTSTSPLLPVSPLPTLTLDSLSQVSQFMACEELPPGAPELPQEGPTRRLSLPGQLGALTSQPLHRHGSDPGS

By IC50 is commonly meant the concentration that gives 50% inhibition. Turning to `Cn1c(Nc2ccc(I)cc2F)c(C(=O)NOCCO)c2cccnc21` [Example 2, 2-((2-Fluoro-4-iodophenyl)amino)—N-(2-hydroxyethoxy)-1-methyl-1H-pyrrolo[2,3-b]pyridine-3-carboxamide], in data set [1] (topical 0.1%), the concentration at 1 h was determined as 14 µg/mL, the concentration at 2 h is 4.88 µg/mL and the “Compound Levels in Neck/Back Skin” value was 5.62 µg/mL. In data set [1] (topical 0.5%), the concentration at 1 h turned out to be 289 µg/mL, the concentration at 2 h was determined as 81.6 µg/mL and the “Compound Levels in Neck/Back Skin” value was 49.17 µg/mL. Further, in data set [1] (topical 1%), the concentration at 1 h stood at 683 µg/mL, the concentration at 2 h worked out at 378 µg/mL and the “Compound Levels in Neck/Back Skin” value turned out to be 14.73 µg/mL. Further, on hERG channel protein, the IC50 is greater than 30 µM.
